The text below walks through data of article PMC6543056 (Acta Pharmaceutica Sinica. B, 2019).

This experiment deals with Vps34 (Homo sapiens, UniProt Q8NEB9). Briefly: ELISA assay of Vps34 kinase activity. The experiment is classed as biochemical. The note with it: Fig. S4. In general terms: In an ELISA, binding on a coated surface is turned into a signal by an enzyme label.
Chain of Vps34 (Q8NEB9 whole entry): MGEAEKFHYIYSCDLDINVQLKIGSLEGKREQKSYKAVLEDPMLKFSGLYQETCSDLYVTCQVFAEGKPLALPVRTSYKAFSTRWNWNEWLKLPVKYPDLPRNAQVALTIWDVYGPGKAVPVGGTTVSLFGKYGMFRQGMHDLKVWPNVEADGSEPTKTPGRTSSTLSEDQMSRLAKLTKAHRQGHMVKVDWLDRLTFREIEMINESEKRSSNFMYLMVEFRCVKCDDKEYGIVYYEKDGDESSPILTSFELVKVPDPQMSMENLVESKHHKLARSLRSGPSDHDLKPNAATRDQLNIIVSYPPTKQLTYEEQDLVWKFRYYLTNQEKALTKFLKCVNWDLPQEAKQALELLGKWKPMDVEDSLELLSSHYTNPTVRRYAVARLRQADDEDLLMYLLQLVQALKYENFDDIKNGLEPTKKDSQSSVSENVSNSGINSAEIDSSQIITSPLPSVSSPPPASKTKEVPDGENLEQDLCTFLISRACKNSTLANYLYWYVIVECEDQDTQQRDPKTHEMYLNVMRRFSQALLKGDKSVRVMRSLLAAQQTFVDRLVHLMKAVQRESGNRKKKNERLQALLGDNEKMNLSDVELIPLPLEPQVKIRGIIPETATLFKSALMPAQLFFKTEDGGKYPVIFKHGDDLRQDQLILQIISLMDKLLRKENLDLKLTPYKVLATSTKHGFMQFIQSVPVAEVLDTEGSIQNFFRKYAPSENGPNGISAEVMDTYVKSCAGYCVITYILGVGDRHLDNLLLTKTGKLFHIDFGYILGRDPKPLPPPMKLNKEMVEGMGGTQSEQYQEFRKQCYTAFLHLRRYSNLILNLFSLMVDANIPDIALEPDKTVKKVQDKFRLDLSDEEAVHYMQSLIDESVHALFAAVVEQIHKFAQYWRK

On to `O=C1/C(=C/C=C/c2ccccc2)Oc2cc(O)ccc21` [1d], for which the “Vps34 inhibition of analogues, SAR (in words)” value was “abolishment of activity”.
